Series [1] has as its system Blastomyces dermatitidis. Nature of the series: Standard agar-dilution test. It counts as cell-based.
For series [2], the system named is Histoplasma capsulatum. The series is described as follows: microbe, parasite or virus in culture. Type of series: cell-based.
The nature of series [3]: physchem. The note with it: 66% aqueous dimethylformamide, pH 7.12.
The test system of series [4] is Candida albicans. Nature of the series: Disc-diffusion antifungal test. The conditions noted are these: 6-mm pads dipped in solutions of test compound. In general terms: Agar diffusion results depend on both activity and mobility in agar.
The subject of series [5] is Trichophyton mentagrophytes. Nature of the series: Disc-diffusion antifungal test. The note with it: for zone of inhibition at 10000 µg/mL: read-out: Zone diameters (mm).
The subject of series [6] is Neurospora crassa. Nature of the series: Disc-diffusion antifungal test. The note with it: read-out: Zone diameters (mm).

≈ marks a conversion by molar mass, not a printed value.

This note sets out measurements from patent EP0021685A1.

As usually defined, the pKa is the pH at which an ionisable group is half protonated. As for `CCCCC/C=C\C/C=C\CCCCCCCC(=O)N[C@H]1C[C@@H](O)[C@@H](OC)NC(=O)[C@@H]2[C@@H](O)[C@@H](C)CN2C(=O)[C@H]([C@@H](C)O)NC(=O)[C@H]([C@H](O)[C@@H](O)c2ccc(O)cc2)NC(=O)[C@@H]2C[C@@H](O)CN2C(=O)[C@H]([C@@H](C)O)NC1=O`, the MIC in series [1] and in series [2] was 100 µg/mL (≈ 93.1 µM) throughout. In series [3], this compound showed a pKa of roughly 12.9. In addition, the “MIC (mcg/disc)” value in series [4] came to 1.25 mcg/disc; in series [5] (disc-diffusion, 6-mm pads dipped in solutions of test compound), 0.078 mcg/disc.
With `CCCCC/C=C\C/C=C\CCCCCCCC(=O)N[C@H]1C[C@@H](O)[C@@H](OCCCCCC)NC(=O)[C@@H]2[C@@H](O)[C@@H](C)CN2C(=O)[C@H]([C@@H](C)O)NC(=O)[C@H]([C@H](O)[C@@H](O)c2ccc(O)cc2)NC(=O)[C@@H]2C[C@@H](O)CN2C(=O)[C@H]([C@@H](C)O)NC1=O` [R = n-hexyl], the zone of inhibition at 10000 µg/mL was 35 mm in series [5] and 25 mm in series [6].
Consider `CCCCC/C=C\C/C=C\CCCCCCCC(=O)N[C@H]1C[C@@H](O)[C@@H](OCCC)NC(=O)[C@@H]2[C@@H](O)[C@@H](C)CN2C(=O)[C@H]([C@@H](C)O)NC(=O)[C@H]([C@H](O)[C@@H](O)c2ccc(O)cc2)NC(=O)[C@@H]2C[C@@H](O)CN2C(=O)[C@H]([C@@H](C)O)NC1=O` [R = n-propyl], for which the zone of inhibition at 10000 µg/mL in series [5] turned out to be 35 mm; in series [6] it was 20 mm.
